Reference: US6818407B2, “Anti-endotoxic antimicrobial cationic peptides and methods of use therfor” (priority 1998, dated 2004)
Marks after values point to notes of the source that are not given here.

Legend:
[1] = test system: S. epidermis; assay: MIC, broth microdilution assay in polypropylene microtiter trays; assay type: cell-based; settings: average of three separate experiments
How it was run: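 Read-out: OD. MIC = lowest peptide conc. giving no OD change over the defined time.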

[2] = test system: RAW 264.7; assay: Inhibition of LPS-induced TNF production by RAW 264.7 macrophage cell line; assay type: cell-based, murine; settings: E. coli LPS 100 ng/ml, peptide 20 μg/ml, 6 hr; FIG. 2
Method: (§1) LPS (endotoxin) binding was examined by the dansyl polymyxin binding assay. All peptides bound to LPS (FIG. 1). The anti-endotoxic activity of the peptides was tested in the murine cell line RAW 264.7 which was obtained from the ATCC (ATCC #TIB-71), (Rockville, Md.). TNF induction experiments with LPS were performed as described by Kelly et al (Infect. Immun., 59:4491-6, 1991). Briefly, Dulbecco's modified Eagle medium was aspirated from RAW 264.7 cells grown overnight in 24-well tissue culture plates after seeding with 10^6 cells per ml per well and replaced with fresh medium. LPS at a final concentration of 100 ng/ml, was incubated with the cells for 6 hr. at 37° C. in 5% CO2 prior to assaying for cytokine production. At the same time as LPS addition, cationic peptides were added at a final concentration of 20 μg/ml. All assays were performed three times with similar results.
(§2) TNF was measured in cell culture supernatants and mouse serum on the basis of cytoxicity for L929 fibroblast cells. […] TNF activity was expressed in units as the reciprocal of the dilution of TNF that caused 50% cytotoxicity of L929 cells, as computed using the ELISA+program (Meddata Inc, New York, N.Y.). For the current study, one unit of TNF corresponded to 62.5 pg/ml of recombinant murine TNF (Genzyme Corp.) IL-6 production was measured by ELISA with specific antibody.

[3] = Lethal endotoxemia in galactosamine-sensitized mice; assay type: in vivo, CD-1 mice; settings: peptide 200 μg intraperitoneal within 10 min of 10 μg LPS; 24 hours post injection; 5 mice per group; no peptide 100
Method: To confirm this in vivo, endotoxic shock was induced by intraperitoneal injection of 10 μg of E.coli 0111:B4 LPS in phosphate-buffered saline (PBS; pH 7.2) into galactosamine-sensitized 8- to 10- week old female CD-1 mice (5 per group). In experiments involving peptides, 200 μg in 100 μl of sterile water was injected at separate intraperitoneal sites within 10 min of LPS injection. Survival was monitored at 24 hours post injection.

[4] = test system: RAW 264.7; assay: Suppression of LPS-induced IL-6 production by RAW 264.7 macrophage cell line; assay type: cell-based, murine; settings: LPS 100 ng/ml, peptide 20 μg/ml, 6 hr, ELISA, FIG. 3
Method: as §1, §2

[5] = test system: P. aeruginosa gyrase mutant (Nal A, H374); assay type: cell-based
Method: The biological activity of the peptides can be determined by standard methods known to those of skill in the art, such as Aminimal inhibitory concentration (MIC)≅ assay described in the present examples, whereby the lowest concentration at which no change in OD is observed for a given period of time is recorded as MIC. Alternatively, Afractional inhibitory concentration (FIC)≅ is also useful for determination of synergy between the peptides of the invention, or the peptides in combination with known antibiotics. FICs are performed by checkerboard titrations of peptides in one dimension of a microtiter plate, and of antibiotics in the other dimension, for example. The FIC is calculated by looking at the impact of one antibiotic on the MIC of the other and vice versa. […] Preferably, an FIC of less than 0.5 is obtained for synergism. As used herein, FIC can be determined as follows: [formula]
To test whether the peptides of the invention synergize with various antibiotics, the following method was employed. Fractional Inhibitory Concentration (FIC) was used to determine synergy of peptides combined with antibiotics (e.g., carbenicillin/ciprofloxacin) against Pseudomonas aeruginosa. The following methodology was followed:
(1) Determination of MIC of cationic peptides (MIC A):
100 μl Mueller Hinton broth (MHB) was added per well
12.5 μl of 10× test concentration peptide was added per well to get final peptide concentration of e.g., 128, 64, 32, . . . 0.025 μg/ml from row 1 to 11;
10 μl of 10^−4 dilution of overnight bacterial culture was added per well.
(2) Determination of MIC of Carbenicillin/Ciprofloxacin (MIC B):
100 μl MHB was added per well;
100 μl of 2× test concentration of antibiotic was added in the first well of the row, and doubling dilutions performed across the plate from column 1 to 11;
(3) Determination of MIC of antibiotics (B) when combined with peptides at concentration A:
100 μl Carbenicillin (512 μg/ml) or Ciprofloxacin (8 μg/ml) was added in each well of column 1; doubling dilutions were performed across the plate;
100 μl of the peptide was added in all wells of row 1, mixed, and 100 μl withdrawn and added to row 2, etc., creating a checkerboard titration.
10 μl of 10^−4 dilution of overnight culture was added per well;
plates were incubated at 37EC for 18-24 hours. Combination MIC values A and B were taken as the lowest concentration of drug that reduced bacterial growth by more than 50% in any given column.
(4) FIC index=FICA+FICB=(A)/MIC A+(B)/MIC B. An FIC index of approximately 0.5 or less indicates synergy; 1.0 reflects additivity; and >1.0 indicates antagonism.

[6] = test system: Pseudomonas aeruginosa PAO; assay: Chronic Pseudomonas aeruginosa lung infection in rats, aerosol treatment; assay type: in vivo; settings: lungs, quantitative culture; aerosol 10 ml of 5 mg/ml once daily for three days; untreated control 1.2 × 10^6
Method: Fifteen animals were utilized in these experiments (5 animals in each of three groups). All animals were inoculated intratracheal with 10^4 Pseudomonas aeruginosa PAO in agar beads. Three days following inoculation, rats were exposed to aerosol preparations from and Aero-Tech II nebulizer (CIS-US, Bedford, Mass.). The nebulizer was operated at 45 psi, with a flow rate of 10 L/min and contained 10 ml of the preparation to be aerosolized. The 10 ml volume was dispensed in 25-30 minutes. Animals were treated once daily for three days; control animals received daily exposure to 10 mls of 10 mM sodium citrate (pH 7.0); one treatment group received daily exposure to 10 mls of 10 mM sodium citrate (pH 7.0) containing 5 mg/ml of CM3; one treatment group received daily exposure to 10 mls of 10 mM sodium citrate (pH 7.0) containing 5 mg/ml of Cpα2. Animals were sacrificed on day 3, at one hour following the last exposure. The lungs of the treatment and control animals were removed for quantitative culture.

[7] = test system: P. aeruginosa efflux mutant (Nal B, H744); assay: microbe, parasite or virus in culture; assay type: cell-based

| Structure (SMILES) | MIC S. epidermis [1] [µg/mL] | Inhibition of TNF production (neutralization of endotoxin) [2] | Mortality (%) [3] [%] | Suppression of IL-6 production [4] | (B) MIC of Nal when combined with peptide ([5]; nalidixic acid with peptide at concentration (A), Nal A, unit from method) [µg/mL] | FIC index ([5]; peptide + nalidixic acid, Nal A) | MIC A MIC of Peptides ([5]; peptide alone, P. aeruginosa gyrase mutant Nal A) [µg/mL] | (A) Peptide doses together with Nal ([5]; peptide concentration in combination with nalidixic acid, Nal A) [µg/mL] | Suppression of IL-6 production ([4]; listed as Cpα2) | Mean Colony Forming Units +/− S.D. [6] | (B) MIC of Nal when combined with peptide ([7]; nalidixic acid with peptide at concentration (A), efflux mutant Nal B, H744, unit from method) [µg/mL] | FIC index ([7]; peptide + nalidixic acid, efflux mutant Nal B, H744) | MIC A MIC of Peptides ([7]; peptide alone, P. aeruginosa efflux mutant Nal B, H744 (Table 6)) [µg/mL] | (A) Peptide doses together with Nal ([7]; peptide concentration in combination with nalidixic acid, efflux mutant Nal B, H744) [µg/mL] |
| --- | --- | --- | --- | --- | --- | --- | --- | --- | --- | --- | --- | --- | --- | --- |
| CC[C@H](C)[C@H](NC(=O)CNC(=O)[C@@H](NC(=O)[C@H](CCCCN)NC(=O)[C@H](CCCCN)NC(=O)[C@H](Cc1ccccc1)NC(=O)[C@H](CC(C)C)NC(=O)[C@H](CCCCN)NC(=O)[C@H](Cc1c[nH]c2ccccc12)NC(=O)[C@@H](N)CCCCN)[C@@H](C)CC)C(=O)NCC(=O)N[C@@H](C)C(=O)N[C@H](C(=O)N[C@@H](CC(C)C)C(=O)N[C@@H](CCCCN)C(=O)N[C@H](C(=O)N[C@@H](CC(C)C)C(=O)N[C@@H](CCCCN)C(=O)N[C@H](C(=O)N[C@@H](CC(C)C)C(=O)N[C@H](C(=O)N[C@H](C(=O)NCC(=O)N[C@@H](CC(C)C)C(=O)N1CCC[C@H]1C(=O)N[C@@H](C)C(=O)N[C@@H](CC(C)C)C(=O)N[C@@H](CCCCN)C(=O)N[C@@H](CC(C)C)C(=O)N[C@H](C(=O)N[C@@H](CC(C)C)C(=O)N[C@@H](CCCCN)C(=O)O)[C@@H](C)O)[C@@H](C)O)[C@@H](C)O)C(C)C)C(C)C)C(C)C [CM4] | 4 | clearly better than others | 80 | – | – | – | – | – | – | – | – | – | – | – |
| CC[C@H](C)[C@H](NC(=O)CNC(=O)[C@@H](NC(=O)[C@H](CCCCN)NC(=O)[C@H](CCCCN)NC(=O)[C@H](Cc1ccccc1)NC(=O)[C@H](CC(C)C)NC(=O)[C@H](CCCCN)NC(=O)[C@H](Cc1c[nH]c2ccccc12)NC(=O)[C@H](CC(C)C)NC(=O)[C@@H](N)CCCCN)[C@@H](C)CC)C(=O)NCC(=O)N[C@@H](C)C(=O)N[C@H](C(=O)N[C@@H](CC(C)C)C(=O)N[C@@H](CCCCN)C(=O)N[C@H](C(=O)N[C@@H](CC(C)C)C(=O)N[C@@H](CCCCN)C(=O)N[C@H](C(=O)N[C@@H](CC(C)C)C(=O)N[C@H](C(=O)N[C@H](C(=O)NCC(=O)N[C@@H](CC(C)C)C(=O)N1CCC[C@H]1C(=O)N[C@@H](C)C(=O)N[C@@H](CC(C)C)C(=O)N[C@@H](CCCCN)C(=O)N[C@@H](CC(C)C)C(=O)N[C@H](C(=O)N[C@@H](CC(C)C)C(=O)N[C@@H](CCCCN)C(=O)O)[C@@H](C)O)[C@@H](C)O)[C@@H](C)O)C(C)C)C(C)C)C(C)C [CM7] | 4 | – | 100 | clearly superior in their ability to suppress IL-6 production | – | – | – | – | – | – | – | – | – | – |
| CC[C@H](C)[C@H](NC(=O)CNC(=O)[C@@H](NC(=O)[C@H](CCCCN)NC(=O)[C@H](CCCCN)NC(=O)[C@@H](NC(=O)[C@H](Cc1ccccc1)NC(=O)[C@H](CCCCN)NC(=O)[C@H](CCCCN)NC(=O)[C@H](Cc1c[nH]c2ccccc12)NC(=O)[C@@H](N)CCCCN)[C@@H](C)CC)[C@@H](C)CC)C(=O)NCC(=O)N[C@@H](C)C(=O)N[C@H](C(=O)N[C@@H](CC(C)C)C(=O)N[C@@H](CCCCN)C(=O)N[C@H](C(=O)N[C@@H](CC(C)C)C(=O)N[C@H](C(=O)N[C@H](C(=O)NCC(=O)N[C@@H](CC(C)C)C(=O)N1CCC[C@H]1C(=O)N[C@@H](C)C(=O)N[C@@H](CC(C)C)C(=O)N[C@@H](CCCCN)C(=O)N[C@@H](CC(C)C)C(=O)N[C@H](C(=O)N[C@@H](CCCCN)C(=O)N[C@@H](CCCCN)C(=O)O)[C@@H](C)O)[C@@H](C)O)[C@@H](C)O)C(C)C)C(C)C [CPα2] | – | clearly better than others | – | clearly superior in their ability to suppress IL-6 production | 800 | 0.50 | 4 | 1 | superior in their ability to suppress IL-6 production | 6.8 × 10^4 +/− 3.6 × 10^4* CFU | 800 | 0.63 | 4 | 0.5 |
